Test results as given in paper PMC4821105 (Pharmacognosy Research, 2016).

How the values were obtained:
PTP1B [1] = biological target: T1, PTP1B (Homo sapiens, UniProt P18031); assay: Protein tyrosine phosphatase 1B inhibitory activity; type: biochemical
T1 sequence (P18031 1-435): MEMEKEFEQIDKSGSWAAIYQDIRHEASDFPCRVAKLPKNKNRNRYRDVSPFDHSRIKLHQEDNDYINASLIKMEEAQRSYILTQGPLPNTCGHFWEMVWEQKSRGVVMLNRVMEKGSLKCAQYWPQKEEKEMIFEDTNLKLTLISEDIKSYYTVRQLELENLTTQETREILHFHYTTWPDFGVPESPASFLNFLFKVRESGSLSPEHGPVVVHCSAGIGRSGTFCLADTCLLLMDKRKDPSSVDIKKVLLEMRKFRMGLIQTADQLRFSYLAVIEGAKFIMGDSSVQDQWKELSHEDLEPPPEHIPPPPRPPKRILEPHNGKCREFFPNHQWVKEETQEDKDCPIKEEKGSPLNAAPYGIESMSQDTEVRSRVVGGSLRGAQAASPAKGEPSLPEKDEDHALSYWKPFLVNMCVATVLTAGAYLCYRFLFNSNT

TCPTP = biological target: T2, TCPTP (Homo sapiens, UniProt P17706); assay: T-cell protein tyrosine phosphatase inhibitory activity; type: biochemical
T2 sequence (P17706 1-415): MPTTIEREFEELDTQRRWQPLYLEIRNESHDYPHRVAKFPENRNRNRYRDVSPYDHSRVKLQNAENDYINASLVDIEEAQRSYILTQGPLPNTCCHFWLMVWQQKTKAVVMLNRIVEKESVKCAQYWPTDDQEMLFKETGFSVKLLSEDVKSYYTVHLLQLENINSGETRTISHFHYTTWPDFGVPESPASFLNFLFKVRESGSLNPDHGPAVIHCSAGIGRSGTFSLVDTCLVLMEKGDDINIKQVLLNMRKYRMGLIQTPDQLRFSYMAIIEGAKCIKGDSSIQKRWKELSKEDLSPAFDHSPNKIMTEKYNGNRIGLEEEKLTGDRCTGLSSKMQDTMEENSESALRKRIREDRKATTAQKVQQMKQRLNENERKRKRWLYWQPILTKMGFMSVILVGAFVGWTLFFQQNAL

PTP1B [2] = biological target: T1, PTP1B; settings: previous study of 28 medicinal plants; cited from earlier work

Row | SMILES | IC50 (PTP1B [1]) | inhibition at 10 µg/mL (PTP1B [1]; read-out: PTP1B inhibited activity (%), 10 μg/mL, mean of triplicate) | IC50 (TCPTP) | PTP1B (IC50, μg/mL) (PTP1B [1]; pNPP 2 mM, 37°C, 30 min) | PTP1B IC50 (previous screening of Indonesian herbal medicines) (PTP1B [2])
1 | C=C(C)[C@@H]1CC[C@]2(C(=O)O)CC[C@]3(C)[C@H](CC[C@@H]4[C@@]5(C)CC[C@H](O)C(C)(C)[C@@H]5CC[C@]43C)[C@@H]12 [Compound 1, Betulinic acid] | 3.28 µM | 98% | 5.25 µM |  | 
2 | C[C@H]1[C@H](C)CC[C@]2(C(=O)O)CC[C@]3(C)C(=CC[C@@H]4[C@@]5(C)CC[C@H](O)C(C)(C)[C@@H]5CC[C@]43C)[C@H]12 [Compound 2, ursolic acid] |  |  | 6.79 µM |  | 
3 | CCCCCCCCCCCCCCCC(=O)C1=C(O)C(CO)OC1=O (stereo not drawn) [RK-682, reference compound] |  |  |  | 2.05 µg/mL | 2.05 µg/mL
